Measured values taken from US20080201871A1, “ANTIMICROBIAL COLORANTS” (The Regents of the University of California, priority 2003, published 2008).

Tests used:
[1] = system: Escherichia coli (E. coli, K-12, Gram-negative); experiment: Minimum inhibitory concentration (MIC) procedure in aqueous solution; assay type: cell-based; conditions: 10^7~10^8 CFU/mL, contact time: 24 hr, MIC = minimum concentration giving more than 4 log reductions
Procedure: (§1) Antimicrobial activity of the agents in aqueous solution was evaluated by a minimum inhibitory concentration (MIC) procedure ([…]. et al., Pharm. Sci., 65(12):1737 (1976)). MIC refers to the lowest concentration of biocides that prohibit population and reproduction of microorganisms. […] Antimicrobial properties of the antimicrobial colorants in aqueous solutions were measured by the MIC procedure.

[2] = system: Staphylococcus aureus (S. aureus, ATCC #12600, Gram-positive); experiment: as above; assay type: cell-based; conditions: 10^7~10^8 CFU/mL, contact time: 24 hr, MIC = minimum concentration giving more than 4 log reductions
Procedure: as §1

[3] = system: E. coli; experiment: Antimicrobial efficacy (log reduction) at fixed concentration and contact time; assay type: cell-based, Escherichia coli; conditions: for Antimicrobial efficacy (Log reduction): contact time 1 minute; for Antimicrobial efficacy (Log reduction) / Antimicrobial Efficacy (log reduction): 10 ppm
Procedure: Antimicrobial activity of the agents in aqueous solution was evaluated by a minimum inhibitory concentration (MIC) procedure (Kaminski, J. J., Hyycke, N. M. et al., Pharm. Sci., 65(12):1737 (1976)). MIC refers to the lowest concentration of biocides that prohibit population and reproduction of microorganisms. In this method, 1 mL of an aqueous suspension containing 10^6˜10^7 colony-forming units (CFU)/mL of Staphylococcus aureus (S. aureus, ATCC #12600, Gram-positive) or Escherichia coli (E. coli, K-12, Gram-negative) were placed into 9 mL aqueous solutions containing different concentrations of the agents for a contact time of 24 hours. After the contact, a 100 μL aliquot of the resultant solution was serially diluted by sterilized distilled water to 10^1, 10^2, 10^3, 10^4 and 10^5. 100 μL of the last four dilutions were placed onto a nutrient agar plate and incubated at 37° C. for 24 hours. The same procedure was applied to a distilled water solution without the antimicrobial agents as a control. In this paper, the reported MIC of the antimicrobial colorants is the minimum concentrations that can eliminate more than 4 log reductions of bacteria (1 log reduction is 90%, 2 log reduction is 99%, and so forth).
To better study the biocidal rate of these colorants, the antimicrobial efficacy of the colorants in terms of log reduction is assessed against E. Coli under different contact time ranging from 15 minutes to 24 hours.
Next, the antimicrobial efficacy of the colorants is further challenged by reducing the contact time down to 1 minute at the concentration of 10 ppm.

[4] = system: S. aureus; experiment: as above; assay type: cell-based, Staphylococcus aureus; conditions: contact time 1 minute, 10 ppm
[5] = Stability study of colorant solutions by UV-vis absorbance; assay type: physicochemical; conditions: 100 ppm aqueous; 100° C. for 4 hours
Procedure: The stability of the antimicrobial colorants was qualitatively studied by using a UV-vis spectrophotometer under different experimental conditions. The tests were performed with antimicrobial colorant solutions at the concentration of 100 ppm in flasks. The colorants were sampled and the absorbance at the maximum absorption wavelength was tested before treatment as a reference. After visible light exposure in a conditioning room for over 30 days, or heating at boiling for 4 hours, or changing to different pH conditions (pH=4 and 10) for over 24 hours, the solutions were sampled, centrifuged, filtered and tested by UV. The new UV-vis spectra were taken and compared with the control.
The stability of the antimicrobial colorants is of great importance because they are mostly applied in aqueous solutions as biocides or dyes. All stability tests were conducted at a concentration of 100 ppm.
In practical applications, these colorants could be used under either acidic or basic conditions, particularly in coloration of acrylics, nylon and wool. For example, acidic dye bath is preferred for dyeing wool fabrics. Thus, the stability of the colorants in low or high pH solution is more important for textile applications. […] The low stability of those colorants was caused by hydrolysis of an amide linkage between QAS and aminoanthraquinone. […]

[6] = system: E. coli; experiment: Antimicrobial efficacy (log reduction) at fixed concentration and contact time; assay type: cell-based, Escherichia coli; conditions: E. coli 10^7~10^8 CFU/ml; for Antimicrobial Efficacy (log reduction): 10 ppm

Row | Structure (SMILES) | MIC of cationic colorants [1] | MIC of cationic colorants [2] | Change of UV-vis absorbance after heating [5] | Change of UV-vis wavelength after heating [5] | Antimicrobial efficacy (Log reduction) [3] | Antimicrobial efficacy (Log reduction) [4] | Antimicrobial Efficacy (log reduction) ([3]; contact time 0.25 hr) | Antimicrobial Efficacy (log reduction) ([3]; contact time 0.5 hr) | Antimicrobial Efficacy (log reduction) ([3]; contact time 1 hr) | Antimicrobial Efficacy (log reduction) ([3]; contact time 2 hr) | Antimicrobial Efficacy (log reduction) ([3]; contact time 4 hr) | Antimicrobial Efficacy (log reduction) ([3]; contact time 8 hr) | Antimicrobial Efficacy (log reduction) ([3]; contact time 16 hr) | Antimicrobial Efficacy (log reduction) ([3]; contact time 24 hr) | Biocidal activity compared with CTAB, CPC and Benzalkonium chloride ([3]; Table 6 conditions) | Antimicrobial Efficacy (log reduction) [6] | Log reduction ([6]; 5 ppm, contact time 1 minute)
1 | CCCC[N+](C)(C)CC(O)CNc1ccc(NCC(O)C[N+](C)(C)CCCC)c2c1C(=O)c1ccccc1C2=O.[Cl-].[Cl-] (centres unmarked) [Di-4] | 200 ppm | 200 ppm | – | – | 0 Log reduction | 0 Log reduction | 0 log reduction | 0 log reduction | 0 log reduction | 0 log reduction | 0 log reduction | 0 log reduction | 0 log reduction | 0 log reduction | – | – | –
2 | CCCCCCCCCCCCCCCC[N+](C)(C)CC(O)CNc1cccc2c1C(=O)c1ccccc1C2=O.[Cl-] (centres unmarked) [Compound M-16] | 60 ppm | 60 ppm | – | – | 0 Log reduction | 0 Log reduction | – | – | – | – | – | – | – | – | – | – | –
3 | CCCCCCCCCCCCCCCC[N+](C)(C)Cc1ccccc1.[Cl-] [Benzalkonium chloride, Benzyldimethyl-hexadecylammonium chloride, reference compound] | – | – | – | – | – | – | – | – | – | – | – | – | – | – | – | 2 log reduction | –
4 | CCCCCCCCCCCCCCCC[N+](C)(C)C.[Br-] [CTAB, Cetyltrimethyl ammonium bromide, reference compound] | – | – | – | – | – | – | – | – | – | – | – | – | – | – | – | 0 log reduction | –

Now from value to compound, other results behind:

Row | MIC of cationic colorants [1] | MIC of cationic colorants [2] | Change of UV-vis absorbance after heating [5] | Change of UV-vis wavelength after heating [5] | Structure (SMILES) | Antimicrobial efficacy (Log reduction) [3] | Antimicrobial efficacy (Log reduction) [4] | Antimicrobial Efficacy (log reduction) ([3]; contact time 0.25 hr) | Antimicrobial Efficacy (log reduction) ([3]; contact time 0.5 hr) | Antimicrobial Efficacy (log reduction) ([3]; contact time 1 hr) | Antimicrobial Efficacy (log reduction) ([3]; contact time 2 hr) | Antimicrobial Efficacy (log reduction) ([3]; contact time 4 hr) | Antimicrobial Efficacy (log reduction) ([3]; contact time 8 hr) | Antimicrobial Efficacy (log reduction) ([3]; contact time 16 hr) | Antimicrobial Efficacy (log reduction) ([3]; contact time 24 hr) | Biocidal activity compared with CTAB, CPC and Benzalkonium chloride ([3]; Table 6 conditions) | Antimicrobial Efficacy (log reduction) [6] | Log reduction ([6]; 5 ppm, contact time 1 minute)
5 | 60 ppm | 60 ppm | – | – | CCCCCCCCCCCCCCCC[N+](C)(C)CC(O)CNc1ccc(NCC(O)C[N+](C)(C)CCCCCCCCCCCCCCCC)c2c1C(=O)c1ccccc1C2=O.[Cl-].[Cl-] (centres unmarked) [Di-16] | 0 Log reduction | 0 Log reduction | – | – | – | – | – | – | – | – | – | – | –
6 | 4 ppm | 4 ppm | slight increases in absorbance | negligible change | CCCCCCCCCCCC[N+](C)(C)CC(O)CNc1ccc(NCC(O)C[N+](C)(C)CCCCCCCCCCCC)c2c1C(=O)c1ccccc1C2=O.[Cl-].[Cl-] (centres unmarked) [Di-12] | – | – | >4 log reduction | >4 log reduction | >4 log reduction | >4 log reduction | >4 log reduction | >4 log reduction | >4 log reduction | >4 log reduction | more efficient in biocidal activity than the other three bactericides | >5 log reduction | –
7 | 5 ppm | 5 ppm | – | – | CCCCCCCC[N+](C)(C)CC(O)CNc1ccc(NCC(O)C[N+](C)(C)CCCCCCCC)c2c1C(=O)c1ccccc1C2=O.[Cl-].[Cl-] (centres unmarked) [Di-8] | – | – | >4 log reduction | >4 log reduction | >4 log reduction | >4 log reduction | >4 log reduction | >4 log reduction | >4 log reduction | >4 log reduction | – | – | 1 Log reduction
